Tests used:
[1] = tested on: acetylated H3 and H4 histones; experiment: Western immunoblot of acetylated H3 and H4 histones in SLE PBMCs; format: cell-based, human; conditions: 1000 ng/ml TSA or 20 μM SAHA, 18 hr
Protocol: The effect of TSA and SAHA was examined to determine if HDIs induce accumulation of acetylated histones in SLE PBMCs on the level of histone acetylation in SLE PBMCs. Following culture of PBMCs in the presence of vehicle, 1000 ng/ml TSA or 20 μM SAHA for 18 hr, histones were isolated.

IL-10 mRNA = IL-10 mRNA in MRL/lpr splenocytes; format: cell-based, mouse
Protocol: In investigating whether TSA down-regulates IL-10 mRNA, MRL/lpr splenocytes were treated with increasing concentrations of TSA. The heightened, constitutive expression of IL-10 mRNA confirms previous findings (FIGS. 11A & 11B, lane 1). […] To address whether TSA and SAHA down-regulate LPS- and IFN-γ induced IL-10 transcript, splenocytes from 10-wk old MRL/lpr mice were treated in the absence or presence of TSA or SAHA for 18 hr before LPS and IFN-γ stimulation for 6 or 18 hr.

IFN-γ mRNA = IFN-γ mRNA in MRL/lpr splenocytes; format: cell-based, mouse
Protocol: In determining whether TSA can down-regulate IFN-γ mRNA, splenocytes from older, 24-wk MRL/lpr mice were treated with 0 to 500 ng/ml of TSA for 18 hr. […] Compared to splenocytes from 10-wk old mice that had low IFN-γ mRNA (FIG. 8B, lane 1), older mice had higher constitutive levels of IFN-γ transcripts normalized to the housekeeping gene, GAPDH (FIG. 8A, lane 1). […] Maximal inhibition of IFN-γ transcript consistently occurred at 500 ng/ml of TSA.
To establish whether TSA or SAHA down-regulates Con A-induced IFN-γ mRNA expression, splenocytes from 10-wk old mice were stimulated with Con A (10 μg/ml) for 18 hr. From previous kinetic studies, IFN-γ mRNA is maximally expressed when T cells are activated for 18 hr. […] Thus, both TSA and SAHA inhibit IFN-γ. mRNA up-regulation in response to mitogenic stimulation.

CD154 transcript = experiment: RT-PCR of CD154 transcript in SLE T cells; format: cell-based, human
Excerpt: Because SLE T cells are often activated (D. T. Y. Yu et al., J. Exp. Med. 151, 91 (1980).), the up-regulation of CD154 and IL-10 and down-regulation of IFN-γ may reflect skewed gene expression due to enhanced recruitment of HDACs to the promoters of these genes. The resulting disequilibrium of acetylation might be expected to alter the chromatin structure of the promoters (R. D. Komberg and Y. Lorch, Curr. Opin. Gen. Dev. 9, 148 (1999)), thereby activating previously silenced genes while repressing expressed genes. To determine if TSA can down-regulate CD154 transcript expression, T cells from eight SLE subjects were treated with increasing concentrations of TSA over 18 hr.
T cells were cultured in the absence or presence of increasing concentrations of TSA for 18 hr in 5% CO2 at 37° C. RNA was isolated, cDNAs were prepared, and RT-PCR was performed as previously detailed (D. Laxminarayana, et al., J. Clin. Invest. 92, 2207 (1993)). The primers used were: […]
The reaction mixtures were subjected to 30 cycles of denaturation (94° C., 1 min) and annealing for 1 min at 53° C. (CD154), […] (GAPDH) and 55° C. (IL-10 and IFN-γ). Extension was for 2 min at 72° C. with a final extension of 7 min at 72° C. using a DNA thermal cycler (Perkin-Elmer).
When SLE T cells were activated with phorbol myristate acetate (PMA) and ionomycin (IO), CD154 mRNA content increased 100%, peaked at 3 hr, and waned thereafter (FIGS. 1C and 1D).

IFN-γ protein = IFN-γ protein secretion by MRL/lpr splenocytes; format: cell-based, mouse; conditions: Con A-stimulated splenocytes from younger MRL/lpr mice, 72 hr; p=0.004
Excerpt: The marked inhibition of IFN-γ transcript by these inhibitors prompted us to quantify IFN-γ protein secretion in splenocyte culture supernatants. Over 72 hr, Con A, but not LPS, stimulated splenocytes from younger MRL/lpr mice to secrete a mean (±SEM) 1,563.2±88.3 pg/ml of IFN-γ (FIG. 8D). […] Thus, inhibition of IFN-γ transcription by TSA and SAHA blocks secretion of IFN-γ protein by splenocytes.

CC(/C=C/C(=O)NO)=C\[C@@H](C)C(=O)c1ccc(N(C)C)cc1 [TSA, Trichostatin A]
accumulation of acetylated H3 and H4 histones [1]: induced the accumulation | TSA dose that down-regulated IL-10 mRNA (IL-10 mRNA; MRL/lpr splenocytes, constitutive expression): 300 ng/mL | LPS- and IFN-γ induced IL-10 mRNA (IL-10 mRNA; splenocytes from 10-wk old MRL/lpr mice pretreated 18 hr, stimulated 6 or 18 hr): no detectable IL-10 mRNA | Con A-induced up-regulation of IFN-γ transcript (IFN-γ mRNA; splenocytes from 10-wk old mice preincubated 18 hr, Con A 10 μg/ml 18 hr, vs vehicle): markedly reduced | TSA concentration of maximal inhibition of IFN-γ transcript (IFN-γ mRNA; splenocytes from 24-wk MRL/lpr mice, 0 to 500 ng/ml TSA, 18 hr): 500 ng/mL | up-regulation of CD154 transcript on PMA+IO activation (CD154 transcript; SLE T cells preincubated with TSA 18 hr (1000 ng/ml), then PMA+IO to 24 hr, vs cells not exposed, P<0.001): significantly reduced | GAPDH mRNA expression (CD154 transcript; SLE T cells, increasing TSA): does not modify | maximal inhibition of CD154 transcript (CD154 transcript; SLE T cells, increasing TSA (0–1000 ng/ml), 18 hr, relative to GAPDH): 60% | IFN-γ protein secretion (IFN-γ protein): did not secrete detectable levels

Reference: patent US7271198B2, “Method of treating autoimmune diseases” (Wake Forest University, priority 2000, dated 2007)
